Values quoted from earlier work as cited in patent US20050159471A1, “Compositions of a benzenesulfonamide or methylsulfonylbenzene cyclooxygenase-2 selective inhibitor and a cholinergic agent for the treatment of reduced blood flow or trauma to the central nervous system” (Pharmacia Corporation, priority 2003, published 2005).

Details: administered to subjects following stroke

## citicoline
  behavioral parameters: improvement in behavioral parameters
  infarction volume: decrease in infarction volume
